47 compounds from patent US20060063782A1, “3-Hetero arylmethoxy ! pyridines and their analogues as p38 map kinase inhibitors” (priority 2002, published 2006) can be followed below.

In general, pIC50 refers to the IC50 on a negative log10 scale, so that one unit is a factor of ten. Read a high pIC50 as a low IC50.

pIC50: −log10 of the molar value.

p38 MAP kinase, sequence (Q16539 whole entry): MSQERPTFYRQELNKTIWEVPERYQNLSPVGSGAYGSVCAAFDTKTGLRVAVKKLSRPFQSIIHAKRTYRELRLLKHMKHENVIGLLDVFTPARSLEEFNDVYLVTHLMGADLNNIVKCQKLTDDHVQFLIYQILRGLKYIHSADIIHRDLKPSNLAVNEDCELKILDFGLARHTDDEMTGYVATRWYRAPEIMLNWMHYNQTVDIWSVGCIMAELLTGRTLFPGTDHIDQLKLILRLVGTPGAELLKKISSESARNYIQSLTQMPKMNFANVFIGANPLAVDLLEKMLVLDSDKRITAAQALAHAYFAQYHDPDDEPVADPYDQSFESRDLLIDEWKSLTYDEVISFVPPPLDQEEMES

The first experiment concerns the target p38 MAP kinase (Homo sapiens, UniProt Q16539). Description: p38 MAP Kinase Assay (33P incorporation into myelin basic protein, filter plate). The class given is biochemical. As to conditions: Table 1; MKK6-activated p38, MBP substrate, 50 minutes. On the procedure: The activated p38 is then diluted 1:6 with assay buffer, and 20 μl mixed with 25 μl of MBP mix (300 μl 10×strength assay buffer, 300 μl of 10 mM DTT & 10 mM sodium orthovanadate, 1.7 ml H2O, 50 μCi γ^33P-ATP, 200 μl of myelin basic protein (MBP) (5 mg/ml)) and added to 96 well plates along with 5 μl of various dilutions of the test compound in DMSO (up to 10%). The reaction is allowed to proceed for 50 minutes before being stopped with an excess of ortho-phosphoric acid (30 μl at 2%).
γ^33P-ATP which remains unincorporated into the myelin basic protein is separated from phosphorylated MBP on a Millipore MAPH filter plate. The wells of the MAPH plate are wetted with 0.5% orthophosphoric acid, and then the results of the reaction are filtered with a Millipore vacuum filtration unit through the wells. Following filtration, the residue is washed twice with 200 μl of 0.5% orthophosphoric acid. Once the filters have dried, 25 μl of Microscint 20 scintillant is added, and then counted on a Packard Topcount for 30 seconds.
`O=C(Nc1ccc(Cl)c(COc2cccnc2)c1)c1cccc(C(F)(F)F)c1` [Compound 69, N-[4-Chloro-3-(pyridin-3-yloxymethyl)-phenyl]-3-trifluoromethyl-benzamide] showed a pIC50 of more than 4.70.

In the case of `Nc1ncccc1OCc1ccc(F)cc1F` [Compound 13, 2-amino-3-(2,4-difluorobenzyloxy)pyridine], the pIC50 was more than 3.00.

`O=C(Nc1cccc(COc2cccnc2)c1)c1cc(F)cc(N2CCOCC2)c1` [Compound 67, 3-Fluoro-5-morpholin-4-yl-N-[3-(pyridin-3-yloxymethyl)-phenyl]-benzamide]: the pIC50 was more than 4.70.

`CC(C)(C)c1cccc(C(=O)Nc2ccc(Cl)c(COc3cccnc3)c2)c1` [Compound 65, 3-tert-Butyl-N-[4-chloro-3-(pyridin-3-yloxymethyl)-phenyl]-benzamide] showed a pIC50 of more than 5.70.

Consider `Cc1cccc(COc2cccnc2N)c1F` [Compound 28], for which the pIC50 was more than 3.00.

In turn, `Clc1cccc(Cl)c1COc1ccc(NCc2ccccc2)nc1` [Compound 51] gave a pIC50 of more than 3.70.

For the compound `Nc1ncccc1OCc1cccc(Cl)c1F` [Compound 27], the pIC50 was more than 3.00.

Consider `Nc1ncccc1OCc1c(F)cccc1Cl` [Compound 22], for which the pIC50 is more than 3.00.

Regarding `Nc1ncccc1OCc1cccc2ccoc12` [Compound 47], the pIC50 is more than 3.00.

`Nc1ncccc1OCc1ccc(F)c(F)c1` [Compound 14, 2-amino-3-(3,4-difluorobenzyloxy)pyridine] gave a pIC50 of more than 3.00.

For `O=C(Nc1ccc(F)c(COc2cccnc2)c1)c1cccc(F)c1` [Compound 60, 3-Fluoro-N-[4-fluoro-3-(pyridin-3-yloxymethyl)-phenyl]-benzamide], the pIC50 was more than 3.70.

For the compound `Nc1ncccc1OCc1csc2ccccc12` [Compound 40], the pIC50 was more than 3.00.

As to `CC(=O)Nc1ccc(Cl)c(COc2cccnc2)c1` [Compound 43], the pIC50 is more than 3.00.

`O=S(=O)(c1ccccc1)N(c1ccc(Cl)c(COc2cccnc2)c1)S(=O)(=O)c1ccccc1` [Compound 56, N-[4-Chloro-3-(pyridin-3-yloxymethyl)-phenyl]-bisbenzenesulfonamide] gave a pIC50 of more than 3.00.

Still in this experiment, the particulars now being: Table 2; MKK6-activated p38, MBP substrate, 50 minutes.
`O=C(Nc1ccc(F)c(COc2cnccn2)c1)c1nnc(-c2ccccc2)o1` [Compound 126, 5-Phenyl-[1,3,4]oxadiazole-2-carboxylic acid [4-fluoro-3-(pyrazin-2-yloxymethyl)-phenyl]-amide] showed a pIC50 of more than 5.70.

`C[S+]([O-])c1nnc(NC(=O)Nc2ccc(F)c(COc3cnccn3)c2)s1` (centres unmarked) [Compound 159, 1-[4-Fluoro-3-(pyrazin-2-yloxymethyl)-phenyl]-3-(5-methanesulfinyl-[1,3,4]thiadiazol-2-yl)-urea] showed a pIC50 of more than 3.00.

As for `Nc1cnc(OCc2ccccc2)cn1` [Compound 86], the pIC50 is more than 3.00.

On to `CC(C)(CO)C(=O)Nc1cnc(OCc2c(Cl)cccc2Cl)cn1` [Compound 177], for which the pIC50 was more than 3.70.

`Cc1nc(-c2cc(C(=O)Nc3ccc(F)c(COc4cnccn4)c3)no2)cs1` [Compound 124, 5-(2-Methyl-thiazol-4-yl)-isoxazole-3-carboxylic acid [4-fluoro-3-(pyrazin-2-yloxymethyl)-phenyl]-amide] had a pIC50 of more than 3.70.

In turn, `Cc1nc(-c2cccc(C(=O)Nc3ccc(F)c(COc4cnccn4)c3)c2)cs1` [Compound 151, N-[4-Fluoro-3-(pyrazin-2-yloxymethyl)-phenyl]-3-(2-methyl-thiazol-4-yl)-benzamide] gave a pIC50 of more than 5.70.

Compound `CN1CCCC(CNC(=O)c2cnc(OCc3c(Cl)cccc3Cl)cn2)C1` (centres unmarked) [Compound 162] gave a pIC50 of more than 3.00.

`CC(C)(C)c1cc(NC(=O)Nc2ccc(F)c(COc3cnccn3)c2)n(-c2ccc(Cl)cc2)n1` [Compound 127, 1-[5-tert-Butyl-2-(4-chloro-phenyl)-2H-pyrazol-3-yl]-3-[4-fluoro-3-(pyrazin-2-yloxymethyl)-phenyl]-urea] had a pIC50 of more than 5.70.

`CC(C)(C)c1cc(C(=O)Nc2ccc(F)c(COc3cnccn3)c2)cc(C(C)(C)C)c1` [Compound 146, 3,5-Di-tert-butyl-N-[4-fluoro-3-(pyrazin-2-yloxymethyl)-phenyl]-benzamide]: the pIC50 was more than 5.70.

`O=C(Nc1ccc(F)c(COc2cnccn2)c1)Nc1nnc(C2CCCO2)s1` (centres unmarked) [Compound 140, 1-[4-Fluoro-3-(pyrazin-2-yloxymethyl)-phenyl]-3-[5-(tetrahydro-furan-2-yl)-[1,3,4]thiadiazol-2-yl]-urea] gave a pIC50 of more than 5.70.

`CC(C)(C)c1cc(NC(=O)Nc2ccc(F)c(COc3cnccn3)c2)n(-c2ccncc2)n1` [Compound 160, 1-(5-tert-Butyl-2-pyridin-4-yl-2H-pyrazol-3-yl)-3-[4-fluoro-3-(pyrazin-2-yloxymethyl)-phenyl]-urea] showed a pIC50 of more than 5.70.

In turn, `CC(C)(C)c1cccc(C(=O)Nc2ccc(F)c(COc3cnccn3)c2)c1` [Compound 103, 3-tert-Butyl-N-[4-fluoro-3-(pyrazin-2-yloxymethyl)-phenyl]-benzamide] gave a pIC50 of more than 5.70.

The compound `CC(C)(C)c1cc(C(=O)Nc2ccc(F)c(COc3cnccn3)c2)n(Cc2ccccc2)n1` [Compound 135, 2-Benzyl-5-tert-butyl-2H-pyrazole-3-carboxylic acid [4-fluoro-3-(pyrazin-2-yloxymethyl)-phenyl]-amide] gave a pIC50 of more than 4.70.

The compound `O=C(Nc1ccc(F)c(COc2cnccn2)c1)Nc1cc(C2CCOCC2)nn1-c1ccc(F)cc1` [Compound 165, 1-[2-(4-Fluoro-phenyl)-5-(tetrahydro-pyran-4-yl)-2H-pyrazol-3-yl]-3-[4-fluoro-3-(pyrazin-2-yloxymethyl)-phenyl]-urea] showed a pIC50 of more than 5.70.

In the case of `Nc1ncc(OCc2cccc3ccccc23)nc1Br` [Compound 83], the pIC50 was more than 3.00.

Consider `O=C(Nc1ccc(F)c(COc2cnccn2)c1)Nc1cc(-c2ccccc2)nn1-c1ccccc1` [Compound 134, 1-(2,5-Diphenyl-2H-pyrazol-3-yl)-3-[4-fluoro-3-(pyrazin-2-yloxymethyl)-phenyl]-urea], for which the negative-log IC50 (pIC50) is more than 5.70.

Compound `O=C(Cn1ccnc1)Nc1cnc(OCc2c(Cl)cccc2Cl)cn1` [Compound 174] showed a pIC50 of more than 4.70.

For the compound `CN1CCC(CC(=O)Nc2cnc(OCc3c(Cl)cccc3Cl)cn2)CC1` [Compound 169], the pIC50 is more than 3.70.

Consider `Cc1noc(-c2ccccc2)c1C(=O)Nc1ccc(F)c(COc2cnccn2)c1` [Compound 122, 3-Methyl-5-phenyl-isoxazole-4-carboxylic acid [4-fluoro-3-(pyrazin-2-yloxymethyl)-phenyl]-amide], for which the pIC50 was more than 3.70.

As for `O=C(Nc1ccc(Cl)c(COc2cnccn2)c1)c1ccnc(N2CCOCC2)c1` [Compound 93, N-[4-Chloro-3-(pyrazin-2-yloxymethyl)-phenyl]-2-morpholin-4-yl-isonicotinamide], the pIC50 is more than 5.70.

The compound `Cc1nc2sccn2c1C(=O)Nc1ccc(F)c(COc2cnccn2)c1` [Compound 144, 6-Methyl-imidazo[2,1-b]thiazole-5-carboxylic acid [4-fluoro-3-(pyrazin-2-yloxymethyl)-phenyl]-amide] showed a pIC50 of more than 5.70.

As to `CC1(C(=O)Nc2cnc(OCc3c(Cl)cccc3Cl)cn2)CC1` [Compound 168], the pIC50 was more than 3.70.

Take `CC(C)(C)OC(=O)Nc1ccc(Cl)c(COc2cnccn2)c1` [Compound 89]: the pIC50 was more than 3.00.

The compound `O=C(Nc1ccc(F)c(COc2cnccn2)c1)Nc1cc(-c2ccccc2)[nH]n1` [Compound 118, 1-[4-Fluoro-3-(pyrazin-2-yloxymethyl)-phenyl]-3-(5-phenyl-1H-pyrazol-3-yl)-urea] gave a pIC50 of more than 5.70.

The compound `CC(C)(C)c1ccc2[nH]cc(CC(=O)Nc3ccc(F)c(COc4cnccn4)c3)c2c1` [Compound 143] gave a pIC50 of more than 3.70.

In turn, `CC(C)(CO)NC(=O)c1cnc(OCc2c(Cl)cccc2Cl)cn1` [Compound 113, 5-(2,6-Dichloro-benzyloxy)-pyrazine-2-carboxylic acid (2-hydroxy-1,1-dimethyl-ethyl)-amide] showed a pIC50 of more than 4.70.

`CC(C)(C)c1cc(NC(=O)Nc2ccc(F)c(COc3cnccn3)c2)n(-c2ccccc2)n1` [Compound 106, 1-(5-tert-Butyl-2-phenyl-2H-pyrazol-3-yl)-3-[4-fluoro-3-(pyrazin-2-yloxymethyl)-phenyl]-urea] gave a negative-log IC50 (pIC50) of more than 5.70.

In turn, `CC(CO)(CO)NC(=O)c1cnc(OCc2c(Cl)cccc2Cl)cn1` [Compound 137, 5-(2,6-Dichloro-benzyloxy)-pyrazine-2-carboxylic acid (2-hydroxy-1-hydroxymethyl-1-methyl-ethyl)-amide] had a negative logarithm of the IC50 (pIC50) of more than 5.70.

The compound `CC(Nc1cnc(OCc2c(Cl)cccc2Cl)cn1)c1ccccc1` (centres unmarked) [Compound 154, [5-(2,6-Dichloro-benzyloxy)-pyrazin-2-yl]-(1-phenyl-ethyl)-amine] gave a pIC50 of more than 4.70.

Regarding `Clc1cccc(Cl)c1COc1cnc(NC2CCOCC2)cn1` [Compound 166], the pIC50 is more than 3.70.

Take `CCN(CC)C(=O)Nc1cnc(OCc2c(Cl)cccc2Cl)cn1` [Compound 114]: the pIC50 is more than 3.70.

The compound `CC(C)(C)c1ccc(C(=O)Nc2ccc(F)c(COc3cnccn3)c2)cc1` [Compound 101, 4-tert-Butyl-N-[4-fluoro-3-(pyrazin-2-yloxymethyl)-phenyl]-benzamide] showed a pIC50 of more than 4.70.

As to `O=C(Nc1ccc(Cl)c(COc2cnccn2)c1)c1ccccc1` [Compound 92, N-[4-Chloro-3-(pyrazin-2-yloxymethyl)-phenyl]-benzamide], the negative-log IC50 (pIC50) is more than 4.70.
